According to PubChem BioAssay AID200 (DTP/NCI, 2004):
Values joined by “and” are separate entries in the source; they are usually repeats but may differ in a detail not shown here. Equal values may be shown once. Toxic doses and inconclusive results are not listed. Rule for the calls: active = survival T/C of 150% or more; inactive = T/C below 125% in these data.

Test system: B6C3F1 mice, B16 melanoma ip, median survival T/C
Experiment: NCI In Vivo Anticancer Drug Screen. Data for tumor model B16 Melanoma (intraperitoneal) in B6C3F1 mice
Conditions: endpoint: median survival time, schedule: Q01DX009 (ip), higher = longer survival
Summary of the method: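 Antitumor effect was judged in mice with transplanted tumors by dividing the treated group's survival measure by that of vehicle controls.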

[1] = dose: 3.12 mg/kg/injection, vehicle: saline with Tween-80
[2] = dose: 6.25 mg/kg/injection, vehicle: saline with Tween-80
[3] = dose: 25.0 mg/kg/injection, vehicle: saline with Tween-80
[4] = dose: 50.0 mg/kg/injection, vehicle: saline with Tween-80
[5] = dose: 12.5 mg/kg/injection, vehicle: saline with Tween-80
[6] = dose: 100.0 mg/kg/injection, vehicle: saline with Tween-80
[7] = dose: 50.0 mg/kg/injection, vehicle: saline
[8] = dose: 100.0 mg/kg/injection, vehicle: saline
[9] = dose: 200.0 mg/kg/injection, vehicle: saline
[10] = dose: 1.56 mg/kg/injection, vehicle: saline with Tween-80
[11] = dose: 25.0 mg/kg/injection, vehicle: Klucel (hydroxypropylcellulose) (HPC)
[12] = dose: 50.0 mg/kg/injection, vehicle: Klucel (hydroxypropylcellulose) (HPC)
[13] = dose: 100.0 mg/kg/injection, vehicle: Klucel (hydroxypropylcellulose) (HPC)
[14] = dose: 200.0 mg/kg/injection, vehicle: Klucel (hydroxypropylcellulose) (HPC)
[15] = dose: 400.0 mg/kg/injection, vehicle: Klucel (hydroxypropylcellulose) (HPC)
[16] = dose: 12.5 mg/kg/injection, vehicle: Klucel (hydroxypropylcellulose) (HPC)
[17] = dose: 3.12 mg/kg/injection, vehicle: saline
[18] = dose: 12.5 mg/kg/injection, vehicle: saline
[19] = dose: 25.0 mg/kg/injection, vehicle: saline

Measured: T/C

COc1ccc(-c2cc(=O)c3ccc4c(O)cccc4c3o2)cc1
inactive: [1] 97 % of control | [2] 88 % of control | [3] 86 % of control | [4] 93 % of control

CC(=O)Nc1ccc(C(=O)C=O)cc1
inactive: [2] 101 % of control and 103 % of control | [5] 116 % of control and 106 % of control | [3] 112 % of control and 101 % of control | [4] 112 % of control and 115 % of control | [6] 102 % of control and 103 % of control

NCCc1ccc(O)cc1
inactive: [7] 96 % of control | [8] 96 % of control | [9] 96 % of control | dose: 400.0 mg/kg/injection, vehicle: saline 104 % of control

CCc1nc(N)nc(N)c1-c1ccc(Cl)c([N+](=O)[O-])c1
inactive: [10] 106 % of control | [1] 105 % of control | dose: 3.25 mg/kg/injection, vehicle: saline with Tween-80 100 % of control | [2] 111 % of control | dose: 7.5 mg/kg/injection, vehicle: saline with Tween-80 101 % of control | dose: 15.0 mg/kg/injection, vehicle: saline with Tween-80 103 % of control | dose: 30.0 mg/kg/injection, vehicle: saline with Tween-80 104 % of control | dose: 60.0 mg/kg/injection, vehicle: saline with Tween-80 114 % of control

C=C1C(=O)OC2/C=C(\C)CC/C=C(/C)CC(OC(=O)/C(=C/CO)CO)C12 (configuration not stated)
inactive: dose: 10.0 mg/kg/injection, vehicle: Klucel (hydroxypropylcellulose) (HPC) 106 % of control | dose: 20.0 mg/kg/injection, vehicle: Klucel (hydroxypropylcellulose) (HPC) 98 % of control | dose: 40.0 mg/kg/injection, vehicle: Klucel (hydroxypropylcellulose) (HPC) 96 % of control

Nc1nc(-c2cccc(S(=O)(=O)O)c2)c([N+](=O)[O-])c(=O)[nH]1
inactive: dose: 12.88 mg/kg/injection, vehicle: saline 99 % of control | dose: 25.75 mg/kg/injection, vehicle: saline 96 % of control | dose: 51.5 mg/kg/injection, vehicle: saline 109 % of control

O=C1C=C(Nc2ccc(O)cc2)c2ccccc2C1=O
inactive: dose: 5.0 mg/kg/injection, vehicle: saline 102 % of control | dose: 10.0 mg/kg/injection, vehicle: saline 98 % of control | dose: 20.0 mg/kg/injection, vehicle: saline 93 % of control

Clc1ccc(C2SC=Cc3ccccc32)cc1 (configuration not stated)
inactive: [11] 114 % of control | [12] 114 % of control | [13] 118 % of control | [14] 112 % of control | [15] 103 % of control

CSCCC(NC(=O)CNC(=O)OCc1ccccc1)C(=O)O (configuration not stated)
inactive: dose: 3.0 mg/kg/injection, vehicle: Klucel (hydroxypropylcellulose) (HPC) 101 % of control and 103 % of control | dose: 6.0 mg/kg/injection, vehicle: Klucel (hydroxypropylcellulose) (HPC) 95 % of control | dose: 6.25 mg/kg/injection, vehicle: Klucel (hydroxypropylcellulose) (HPC) 93 % of control | dose: 12.0 mg/kg/injection, vehicle: Klucel (hydroxypropylcellulose) (HPC) 101 % of control and 103 % of control | [16] 97 % of control | [11] 93 % of control and 94 % of control | [12] 95 % of control and 99 % of control and 102 % of control | [13] 95 % of control | [14] 101 % of control | [15] 95 % of control

CCCCCCCCSC1=C(Cl)C(=O)C(OC)=C(OC)C1=O
inactive: [10] 100 % of control | [1] 93 % of control | [2] 89 % of control

NNC(=S)N/N=C/c1ccccn1
inactive: dose: 1.56 mg/kg/injection, vehicle: saline 91 % of control | dose: 1.56 mg/kg/injection, vehicle: suspension in saline 117 % of control | [17] 109 % of control | dose: 3.12 mg/kg/injection, vehicle: suspension in saline 113 % of control | dose: 6.25 mg/kg/injection, vehicle: saline 94 % of control | dose: 6.25 mg/kg/injection, vehicle: suspension in saline 102 % of control | [18] 105 % of control | dose: 12.5 mg/kg/injection, vehicle: suspension in saline 113 % of control | [19] 98 % of control

Cc1ccc(N=NN(C)C)c2cccnc12
inactive: dose: 3.13 mg/kg/injection, vehicle: other 106 % of control | dose: 6.25 mg/kg/injection, vehicle: other 95 % of control | dose: 12.5 mg/kg/injection, vehicle: other 108 % of control | dose: 25.0 mg/kg/injection, vehicle: other 114 % of control | dose: 50.0 mg/kg/injection, vehicle: other 115 % of control

NC(=O)CCC(NC(=O)OCC1c2ccccc2-c2ccccc21)C(=O)O (configuration not stated)
inactive: [13] 98 % of control | [14] 93 % of control | [15] 94 % of control

NC(=O)c1c[se]c(C2OC(CO)C(O)C2O)n1 (configuration not stated)
inactive: dose: 12.5 mg/kg/injection, vehicle: water 109 % of control | dose: 25.0 mg/kg/injection, vehicle: water 102 % of control | dose: 50.0 mg/kg/injection, vehicle: water 115 % of control | dose: 100.0 mg/kg/injection, vehicle: water 109 % of control

COC(OC(CO)C(O)S(=O)(=O)O)C(O)S(=O)(=O)O (configuration not stated)
active: [8] 155 % of control
inactive: [18] 108 % of control | [19] 115 % of control

CCc1nc(N)nc(N)c1-c1ccc(Cl)c(Cl)c1.[Cl][Pd][Cl]
inactive: [17] 114 % of control

O=C1CC2(C(=O)N1CN1CCCCC1)c1ccccc1-c1ccccc12
inactive: [16] 91 % of control | [11] 95 % of control | [12] 95 % of control | [13] 110 % of control | [14] 92 % of control

CC(C)(C)OC(=O)NCCCCC(NC(=O)OC(C)(C)C)C(=O)O (configuration not stated)
inactive: [4] 97 % of control | [6] 104 % of control | dose: 200.0 mg/kg/injection, vehicle: saline with Tween-80 95 % of control

Cc1c(-c2ccc(C3CCCCC3)cc2)nc2ccc(F)cc2c1C(=O)O
inactive: [11] 121 % of control
active: [13] 155 % of control | [14] 150 % of control | [15] 160 % of control and 179 % of control

Nc1nc(Cc2ccccc2)c(CCCNc2ccccc2)c(=O)[nH]1
inactive: [2] 101 % of control | [5] 109 % of control | [3] 92 % of control | [4] 86 % of control

CC(C)(C)OC(=O)NC(CC(=O)O)C(=O)O (configuration not stated)
inactive: [7] 102 % of control | [8] 90 % of control | [9] 96 % of control

COc1cc(C[C@@H]2COC(=O)[C@]2(O)Cc2ccc(O)c(OC)c2)ccc1O
inactive: dose: 1.0 mg/kg/injection, vehicle: saline + alcohol 102 % of control | dose: 2.0 mg/kg/injection, vehicle: saline + alcohol 88 % of control | dose: 4.0 mg/kg/injection, vehicle: saline + alcohol 91 % of control | dose: 8.0 mg/kg/injection, vehicle: saline + alcohol 101 % of control | dose: 16.0 mg/kg/injection, vehicle: saline + alcohol 86 % of control
